In patent US20250145585A1, “HETEROCYCLIC INHIBITORS OF IGF-1R FOR TREATMENT OF DISEASE” (HORIZON THERAPEUTICS IRELAND DAC, priority 2023, published 2025):

Target: T1, IGF-1R (Homo sapiens, UniProt P08069)
T1 construct: expressed in transfected cells
Assay: Example B-1: IGF-1R Assay (PC3 cells stimulated with IGF1, AlphaLISA on cell lysates)
Assay type: cell-based
Conditions: compound two hours, IGF1 200 ng/mL for 30 min, read-out: IC50, Biological Activity against IGF-1R (Table B1)
Summary of the method: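 IC50 from AlphaLISA read-out of lysed PC3 cells, percent inhibition normalized between vehicle and EC80 controls. Before lysis, cells had 2 h serum-free starvation, 2 h exposure to compound in 3× dilution series, and 30 min IGF1 stimulation at final 200 ng/mL.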

T1 sequence (P08069 31-1367): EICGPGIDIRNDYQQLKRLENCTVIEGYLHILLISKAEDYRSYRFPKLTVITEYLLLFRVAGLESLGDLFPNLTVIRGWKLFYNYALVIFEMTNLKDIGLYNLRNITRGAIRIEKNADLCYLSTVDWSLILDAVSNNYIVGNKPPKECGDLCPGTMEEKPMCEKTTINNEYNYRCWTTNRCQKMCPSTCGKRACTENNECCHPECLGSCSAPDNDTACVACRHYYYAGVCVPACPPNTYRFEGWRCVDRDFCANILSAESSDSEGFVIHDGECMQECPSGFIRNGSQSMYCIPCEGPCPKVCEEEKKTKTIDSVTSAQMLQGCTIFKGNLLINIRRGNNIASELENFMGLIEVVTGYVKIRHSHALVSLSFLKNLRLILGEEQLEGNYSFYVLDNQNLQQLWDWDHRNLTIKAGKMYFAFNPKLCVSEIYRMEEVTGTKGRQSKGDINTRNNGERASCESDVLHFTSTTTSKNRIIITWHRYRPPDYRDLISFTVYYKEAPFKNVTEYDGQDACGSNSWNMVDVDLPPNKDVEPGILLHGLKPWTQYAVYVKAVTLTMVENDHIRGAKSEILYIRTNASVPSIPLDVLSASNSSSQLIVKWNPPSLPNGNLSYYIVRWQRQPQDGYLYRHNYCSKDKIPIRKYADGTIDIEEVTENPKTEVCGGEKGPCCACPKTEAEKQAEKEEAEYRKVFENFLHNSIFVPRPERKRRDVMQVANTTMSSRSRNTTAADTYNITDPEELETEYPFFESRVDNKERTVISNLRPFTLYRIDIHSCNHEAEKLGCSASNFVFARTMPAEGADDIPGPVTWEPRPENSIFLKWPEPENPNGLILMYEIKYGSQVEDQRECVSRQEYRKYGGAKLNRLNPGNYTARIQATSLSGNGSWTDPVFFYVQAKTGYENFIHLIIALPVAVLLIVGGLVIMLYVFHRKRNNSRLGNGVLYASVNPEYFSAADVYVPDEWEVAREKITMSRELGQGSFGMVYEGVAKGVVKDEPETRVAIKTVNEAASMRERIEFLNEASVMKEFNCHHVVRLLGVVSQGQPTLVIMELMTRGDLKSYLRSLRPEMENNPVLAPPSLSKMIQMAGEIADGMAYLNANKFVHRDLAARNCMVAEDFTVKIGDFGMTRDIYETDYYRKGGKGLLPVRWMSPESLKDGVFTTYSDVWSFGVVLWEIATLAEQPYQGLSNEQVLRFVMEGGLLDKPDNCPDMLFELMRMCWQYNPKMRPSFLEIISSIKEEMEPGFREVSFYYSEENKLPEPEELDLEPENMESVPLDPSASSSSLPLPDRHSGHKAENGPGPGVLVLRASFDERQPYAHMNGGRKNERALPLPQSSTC

SMILES | IC50 [nM]
CC(C)(C)c1ccc(N2C(=O)N(Cc3ccnc(NC45CC(C4)C5)c3)C(C)(C)C2=O)cc1 [Compound 276, 1-((2-(bicyclo[1.1.1]pentan-1-ylamino)pyridin-4-yl)methyl)-3-(4-(tert-butyl)phenyl)-5,5-dimethylimidazolidine-2,4-dione] | ≤ 500
Nc1cc(CN2C(=O)N(c3ccc(SC(F)(F)F)cc3)C(=O)[C@@H]2Cc2ccccc2)ccn1 [Compound 289, (S)-1-((2-aminopyridin-4-yl)methyl)-5-benzyl-3-(4-((trifluoromethyl)thio)phenyl)imidazolidine-2,4-dione] | 500 to 2000
CC(C)[C@H]1C(=O)N(c2ccc(SC(F)(F)F)cc2)C(=O)N1Cc1ccnc(N)c1 [Compound 290, (S)-1-((2-aminopyridin-4-yl)methyl)-5-isopropyl-3-(4-((trifluoromethyl)thio)phenyl)imidazolidine-2,4-dione] | > 10000
Nc1cc(CN2C(=O)N(c3ccc(SC(F)(F)F)cc3)C(=O)C23CCCC3)ccn1 [Compound 291, ((2-aminopyridin-4-yl)methyl)-3-(4-((trifluoromethyl)thio)phenyl)-1,3-diazaspiro[4.4]nonane-2,4-dione] | 500 to 2000
Nc1cc(CN2C(=O)N(c3ccc(SC(F)(F)F)cc3)C(=O)C23CCC3)ccn1 [Compound 292, 5-((2-aminopyridin-4-yl)methyl)-7-(4-((trifluoromethyl)thio)phenyl)-5,7-diazaspiro[3.4]octane-6,8-dione] | 500 to 2000
Nc1cc(CN2C(=O)N(c3ccc(SC(F)(F)F)cc3)C(=O)C23CCCCC3)ccn1 [Compound 293, 1-((2-aminopyridin-4-yl)methyl)-3-(4-((trifluoromethyl)thio)phenyl)-1,3-diazaspiro[4.5]decane-2,4-dione] | 2000 to 10000
Nc1cc(CN2C(=O)N(c3ccc(SC(F)(F)F)cc3)C(=O)[C@@H]2c2ccccc2)ccn1 [Compound 294, (S)-1-((2-aminopyridin-4-yl)methyl)-5-phenyl-3-(4-((trifluoromethyl)thio)phenyl)imidazolidine-2,4-dione] | > 10000
CC(C)[C@@H]1C(=O)N(c2ccc(SC(F)(F)F)cc2)C(=O)N1Cc1ccnc(N)c1 [Compound 295, (R)-1-((2-aminopyridin-4-yl)methyl)-5-isopropyl-3-(4-((trifluoromethyl)thio)phenyl)imidazolidine-2,4-dione] | 2000 to 10000
Nc1cc(CN2C(=O)N(c3ccc(SC(F)(F)F)cc3)C(=O)[C@@H]2C2CCCCC2)ccn1 [Compound 296, (S)-1-((2-aminopyridin-4-yl)methyl)-5-cyclohexyl-3-(4-((trifluoromethyl)thio)phenyl)imidazolidine-2,4-dione] | > 10000
CCC1(C)C(=O)N(c2ccc(SC(F)(F)F)cc2)C(=O)N1Cc1ccnc(N)c1 (stereo not drawn) [Compound 297, 1-((2-aminopyridin-4-yl)methyl)-5-ethyl-5-methyl-3-(4-((trifluoromethyl)thio)phenyl)imidazolidine-2,4-dione] | ≤ 500
CC(C)[C@H]1C(=O)N(c2ccc(S(=O)(=O)C(F)(F)F)cc2)C(=O)N1Cc1ccnc(N)c1 [Compound 300, (S)-1-((2-aminopyridin-4-yl)methyl)-5-isopropyl-3-(4-((trifluoromethyl)sulfonyl)phenyl)imidazolidine-2,4-dione] | 2000 to 10000
Cn1cc(CNc2cc(CN3C(=O)N(c4ccc(SC(F)(F)F)cc4)C(=O)C3(C)C)ccn2)cn1 [Compound 301, 5,5-dimethyl-1-((2-(((1-methyl-1H-pyrazol-4-yl)methyl)amino)pyridin-4-yl)methyl)-3-(4-((trifluoromethyl)thio)phenyl)imidazolidine-2,4-dione] | ≤ 500
CC1(C)C(=O)N(c2ccc(SC(F)(F)F)cc2)C(=O)N1Cc1ccnc(NC(=O)C2CC3(CNC3)C2)c1 [Compound 302, N-(4-((5,5-dimethyl-2,4-dioxo-3-(4-((trifluoromethyl)thio)phenyl)imidazolidin-1-yl)methyl)pyridin-2-yl)-2-azaspiro[3.3]heptane-6-carboxamide] | ≤ 500
CC1(C)C(=O)N(c2ccc(SC(F)(F)F)cc2)C(=O)N1Cc1ccnc(NC(=O)NC2CCOC2)c1 (stereo not drawn) [Compound 303, 1-(4-((5,5-dimethyl-2,4-dioxo-3-(4-((trifluoromethyl)thio)phenyl)imidazolidin-1-yl)methyl)pyridin-2-yl)-3-(tetrahydrofuran-3-yl)urea] | ≤ 500
CC1(C)C(=O)N(c2ccc(SC(F)(F)F)cc2)C(=O)N1Cc1ccnc(NC(=O)NC23CCC(CC2)C3)c1 [Compound 304, 1-(bicyclo[2.2.1]heptan-1-yl)-3-(4-((5,5-dimethyl-2,4-dioxo-3-(4-((trifluoromethyl)thio)phenyl)imidazolidin-1-yl)methyl)pyridin-2-yl)urea] | 500 to 2000
CC1(C)C(=O)N(c2ccc(SC(F)(F)F)cc2)C(=O)N1Cc1ccnc(NC(=O)C2NCC23CCCCC3)c1 (stereo not drawn) [Compound 305, N-(4-((5,5-dimethyl-2,4-dioxo-3-(4-((trifluoromethyl)thio)phenyl)imidazolidin-1-yl)methyl)pyridin-2-yl)-2-azaspiro[3.5]nonane-1-carboxamide] | 2000 to 10000
CC1(C)C(=O)N(c2ccc(SC(F)(F)F)cc2)C(=O)N1Cc1ccnc(NC(=O)NC2CCOCC2)c1 [Compound 306, 1-(4-((5,5-dimethyl-2,4-dioxo-3-(4-((trifluoromethyl)thio)phenyl)imidazolidin-1-yl)methyl)pyridin-2-yl)-3-(tetrahydro-2H-pyran-4-yl)urea] | ≤ 500
CC1(C)C(=O)N(c2ccc(SC(F)(F)F)cc2)C(=O)N1Cc1ccnc(NC(=O)NC2CCN(CC(F)(F)F)CC2)c1 [Compound 307, 1-(4-((5,5-dimethyl-2,4-dioxo-3-(4-((trifluoromethyl)thio)phenyl)imidazolidin-1-yl)methyl)pyridin-2-yl)-3-(1-(2,2,2-trifluoroethyl)piperidin-4-yl)urea] | ≤ 500
CC1(C)C(=O)N(c2ccc(SC(F)(F)F)cc2)C(=O)N1Cc1ccnc(NC(=O)NC2COC2)c1 [Compound 308, 1-(4-((5,5-dimethyl-2,4-dioxo-3-(4-((trifluoromethyl)thio)phenyl)imidazolidin-1-yl)methyl)pyridin-2-yl)-3-(oxetan-3-yl)urea] | ≤ 500
CN1CCC(NC(=O)Nc2cc(CN3C(=O)N(c4ccc(SC(F)(F)F)cc4)C(=O)C3(C)C)ccn2)CC1 [Compound 309, 1-(4-((5,5-dimethyl-2,4-dioxo-3-(4-((trifluoromethyl)thio)phenyl)imidazolidin-1-yl)methyl)pyridin-2-yl)-3-(1-methylpiperidin-4-yl)urea] | ≤ 500
CC1(C)C(=O)N(c2ccc(SC(F)(F)F)cc2)C(=O)N1Cc1ccnc(NCC2CC2)c1 [Compound 311, 1-((2-((cyclopropylmethyl)amino)pyridin-4-yl)methyl)-5,5-dimethyl-3-(4-((trifluoromethyl)thio)phenyl) imidazolidine-2,4-dione] | ≤ 500
CC1(C)C(=O)N(c2ccc(SC(F)(F)F)cc2)C(=O)N1Cc1ccnc(NCc2ncc[nH]2)c1 [Compound 312, 1-((2-(((1H-imidazol-2-yl)methyl)amino)pyridin-4-yl)methyl)-5,5-dimethyl-3-(4-((trifluoromethyl)thio)phenyl) imidazolidine-2,4-dione] | 500 to 2000
CC1(C)C(=O)N(c2ccc(SC(F)(F)F)cc2)C(=O)N1Cc1ccnc(NCC(F)(F)F)c1 [Compound 313, 5,5-dimethyl-1-((2-((2,2,2-trifluoroethyl)amino)pyridin-4-yl)methyl)-3-(4-((trifluoromethyl)thio)phenyl) imidazolidine-2,4-dione] | 500 to 2000
CC1(C)C(=O)N(c2ccc(SC(F)(F)F)cc2)C(=O)N1Cc1ccnc(NC2COC2)c1 [Compound 314, 5,5-dimethyl-1-((2-(oxetan-3-ylamino)pyridin-4-yl)methyl)-3-(4-((trifluoromethyl)thio)phenyl) imidazolidine-2,4-dione] | > 10000
CC1(C)C(=O)N(c2ccc(SC(F)(F)F)cc2)C(=O)N1Cc1ccnc(NCC(F)F)c1 [Compound 315, 1-((2-((2,2-difluoroethyl)amino)pyridin-4-yl)methyl)-5,5-dimethyl-3-(4-((trifluoromethyl)thio)phenyl) imidazolidine-2,4-dione] | ≤ 500
CN1CC(Nc2cc(CN3C(=O)N(c4ccc(C(C)(C)C)cc4)C(=O)C3(C)C)ccn2)C1 [Compound 345, 3-(4-(tert-butyl)phenyl)-5,5-dimethyl-1-((2-((1-methylazetidin-3-yl)amino)pyridin-4-yl)methyl)imidazolidine-2,4-dione] | 500 to 2000
CC(C)(C)c1ccc(N2C(=O)N(Cc3ccnc(-c4ccccc4)c3)C(C)(C)C2=O)cc1 [Compound 346, 3-(4-(tert-butyl)phenyl)-5,5-dimethyl-1-((2-phenylpyridin-4-yl)methyl)imidazoline-2,4-dione] | 500 to 2000
CC(C)(C)c1ccc(N2C(=O)N(Cc3ccnc(-c4ccn[nH]4)c3)C(C)(C)C2=O)cc1 [Compound 347, 1-((2-(1H-pyrazol-5-yl)pyridin-4-yl)methyl)-3-(4-(tert-butyl)phenyl)-5,5-dimethylimidazoline-2,4-dione] | ≤ 500
CN(C)CC(=O)Nc1cc(CN2C(=O)N(c3ccc(SC(F)(F)F)cc3)C(=O)C2(C)C)ccn1 [Compound 348, N-(4-((5,5-dimethyl-2,4-dioxo-3-(4-((trifluoromethyl)thio)phenyl)imidazolidin-1-yl)methyl)pyridin-2-yl)-2-(dimethylamino)acetamide] | ≤ 500
CN1CC(Oc2ccc(Nc3cc(CN4C(=O)N(c5ccc(SC(F)(F)F)cc5)C(=O)C4(C)C)ccn3)cc2)C1 [Compound 349, 5,5-dimethyl-1-((2-((4-((1-methylazetidin-3-yl)oxy)phenyl)amino)pyridin-4-yl)methyl)-3-(4-((trifluoromethyl)thio)phenyl) imidazolidine-2,4-dione] | ≤ 500
